In patent publication US8809310B2, “Use of rasagiline for the treatment of multiple system atrophy” (priority 2006, dated 2014):
Like-named read-outs stand apart in the source and are kept apart here.

Assays:
[1] = tested on: (PLP) α-synuclein transgenic mice; conditions: MSA mice (3-NP +), N=10
Excerpt: A suitable model for MSA is described by Stefanova et al. (Am. J. Pathol. March 2005, 166(3):869-76; Trends Neurosci. 2005, 28(9):501-6). This model acts by inducing oxidative stress in transgenic mice with oligodendroglial α-synuclein expression. […] The selective neuronal cell death pattern typical of MSA is achieved by combining mitochondrial inhibition by 3-nitropropionic acid (3-NP).
A total of 36 (PLP) α-synuclein transgenic mice over 6 months of age were used.
Chronic intoxication with 3-NP was done according to a previously used paradigm pathiology (i.e. 4×10 mg/kg, 4×20 mg/kg, 4×40 mg/kg, 4×50 mg/kg intraperitoneal injections every 12th hour for a period of two weeks) to model MSA pathology.
The mice were further divided into groups as follows: Control group (saline tested, n=10), low dose rasagiline group (0.6 mg/kg; n=10) and high dose rasagiline group ([…]; n=10). Rasagiline was delivered subcutaneously every 24 hours starting 24 hours one week before the intoxication with 3-NP and lasting for an additional week, i.e., for a total period of 4 weeks.

[2] = molecular target: MAO-A (Mus musculus, UniProt Q64133); conditions: for MAO-A activity (mean dpm ± SD): MSA mice, brain homogenate, 14C-HT 100 μM, end of experiment
Procedure: (§1) Efficacy of Rasagiline treatment was determined by biochemical measurement of the inhibition of MAO-A and MAO-B activity in the different treatment groups. Two mice per group were sacrificed under deep thiopental anesthesia by cervical […]. Brains were immediately removed and snap-frozen in liquid nitrogen and further stored at −80° C. Tissue homogenates were preincubated with clorgyline or deprenyl in order to inhibit MAO-A or MAO-B respectively. Incubation was carried on with 14C-labeled PEA (10 μM) for MAO-B determination and 14C-HT (100 μM) for MAO-A determination. Reaction was stopped by acidification and labeled metabolites were extracted into toluene/ethyl acetate and counted by beta-counter.

[3] = molecular target: MAO-B (Mus musculus, UniProt Q8BW75); conditions: for MAO-B activity (mean dpm ± SD): MSA mice, brain homogenate, 14C-PEA 10 μM, end of experiment
Procedure: as §1

[4] = tested on: (PLP) α-synuclein transgenic mice; conditions: fourth week (day 25)
Procedure: The pole test (Id.; and Matsuura et al., Pole test is a useful method for evaluating the mouse movement disorder caused by striatal dopamine depletion, Journal of Neuroscience Methods 1997; 73:45-8) was performed on day 17 and day 25 of the experiment. Each mouse was habituated to the test the day before. A wooden vertical pole with rough surface, 1 cm wide and 50 cm high was applied. The mouse was placed with the head up at the top of the pole and the time for turning downwards (Tturn) as well as the total time for climbing down the pole until the mouse reached the floor with the four paws (Ttotal) was taken in 5 trials. The best performance of all the five trials was kept for the statistical analysis (Fernagut et al., In vivo models of multiple system atrophy, Mov Disord. 2005; 20 Suppl 12:S57-S63). If a mouse was unable to perform the test, a default value of 120 s was taken into account.

[5] = tested on: (PLP) α-synuclein transgenic mice; conditions: any of the time points studied (day 16, day 26)
Procedure: To test the locomotor activity of the mice we applied the Flex Field Activity System, (San Diego Instruments, San Diego, Calif.) which allows monitoring and real-time counting of horizontal and vertical locomotor activity by 544 photo-beam channels. Mice were placed in the center of the open field (40.5×40.5×36.5 cm) and tested for a 15 min period always at the same time of the day (5.00 p.m.). The tests were performed in a dark room that was completely isolated from external noises and light during the test period. The sum of counts in the horizontal and vertical plane at day 16 and on day 26 of the experiment was further analyzed.

[6] = tested on: (PLP) α-synuclein transgenic mice
Procedure: The stride length of the hindlimbs of the mice was measured at baseline and before sacrificing them after a habituation to the test for 3 days before its performance. The limbs of each animal were wetted with a non-toxic food color and the mouse was let to run on a strip of paper (42 cm long, 4.5 cm wide) down a bright corridor towards a dark goal box. After four runs, the stride length of the forelimbs and the hindlimbs on each side was measured, excluding the beginning (7 cm) and the end (7 cm) of the run. The mean stride length for was determined.
Stride length test was performed on day 18-19 and day 27-28 after first 3-NP intoxication.

[7] = tested on: (PLP) α-synuclein transgenic mice; remark: listed apart in the source
Procedure: Neuropathological examination of the brains was performed after transcardial perfusion of 4% paraformaldehyde (PFA) under deep thiopental anesthesia. Brains were quickly removed, postfixed in the same fixative for 1 hour at 4° C., and then kept in 25% sucrose solution until they sunk. The brains were slowly frozen in with 2-methylbutan and kept at −80° C. until processing. Serial sections throughout the whole brain were cut on a freezing microtome (Leica, Nussloch, Germany).
(§2) Sections underwent the following immunohistochemical stainings: tyrosinehydroxylase antibody (Sigma) used to visualize dopaminergic neurons in SNc, dopamine and cyclic adenosine 3′,5′-monophosphate-regulated phosphoprotein 32 (DARPP-32)(New York Hospital-Cornell Medical Centre) used to visualize medium sized spiny neurons in striatum and Purkinje cells in cerebellar cortex, Glial Fibrillary Acidic Protein (GFAP)(Roche Diagnostics GmBH) used to visualize astroglial reaction, CD11b (Serotec) used to visualize microglial reaction and Bcl-2, Bcl-X1 and Bax apoptic/anti-apoptotic markers. One full series was stained with cresyl violet.
(§3) The following antibodies were used in this study: monoclonal anti-DARPP-32 (1:2000), monoclonal anti-TH (Sigma, St. Louis, Mo., 1:500), monoclonal anti-GFAP (Roche, Vienna, Austria 1:100), monoclonal anti-CD11b (Serotec, Oxford, UK, 1:100), polyclonal anti-activated capase 3 (Transduction Laboratories, Lexington, Ky., 1:200), monoclonal anti-Bax (Santa Cruz Biotechnology, 1:100), monoclonal anti-Bc12 (Santa Cruz Biotechnology, 1:100), and monoclonal anti-BclX (Chemicon, Temecula, Calif., 1:100). Secondary antibodies were biotinylated horse anti-mouse IgG, goat anti-rat IgG, or goat anti-rabbit IgG (Vector, Burlingame, Calif.). Immunohistochemical reaction was developed with 3,3′-diaminobenzidine.
All morphometric analyses were done blinded to the treatment of the animal's observer. Stereology was applied using a computer-assisted image analysis system (Nikon E-800 microscope, Nikon digital camera DXM 1200; Stereo Investigator Software, MicroBrightField Europe e.K., Magdeburg, Germany). […] Purkinje cells in the cerebellum and glial reaction throughout the entire brain are analyzed to the Paxinos and Franklin mouse brain atlas (1997, Academic Press, San Diego). Purkinje cells were counted in a region outlined to include only the Purkinje cell layer (German et al., Degeneration of neurons and glia in the Niemann-Pick C mouse is unrelated to the low-density lipoprotein receptor. Neuroscience, 2001; 105:999-1005).

[8] = tested on: (PLP) α-synuclein transgenic mice; conditions: mouse, in vivo
Excerpt: as §2, §3

[9] = tested on: (PLP) α-synuclein transgenic mice; conditions: daily rating, whole experimental period
Procedure: Behavioral tests were performed blindly to the treatment status according to the following procedures and described in Fernagut et al.: clinical scale, stride length, spontaneous locomotor activity.
The groups were evaluated daily during the whole experimental period with a general motor score according to a previously published rating scale.
A previously described rating scale (Fernagut et al., Subacute systemic 3-nitropropionic acid intoxication induces a distinct motor disorder in adult C57B1/6 mice: Behavioural and histopathological characterization, Neuroscience 2002; 114:1005-17) was used for evaluation of hindlimb clasping, general locomotor activity, hindlimb dystonia, truncal dystonia and postural challenge response (0, normal; 1 slightly disturbed, and 2 markedly disabled). […] A total daily score per animal for each session was determined as well as a total sum score per animal per group for the whole testing period.

[10] = tested on: early Parkinson's disease patients; conditions: rasagiline-treated subjects; cited from earlier work
[11] = 2.5 mg/kg daily for 4 weeks, without reaching neuronal numbers of healthy controls

Chain of MAO-A (Q64133 whole entry): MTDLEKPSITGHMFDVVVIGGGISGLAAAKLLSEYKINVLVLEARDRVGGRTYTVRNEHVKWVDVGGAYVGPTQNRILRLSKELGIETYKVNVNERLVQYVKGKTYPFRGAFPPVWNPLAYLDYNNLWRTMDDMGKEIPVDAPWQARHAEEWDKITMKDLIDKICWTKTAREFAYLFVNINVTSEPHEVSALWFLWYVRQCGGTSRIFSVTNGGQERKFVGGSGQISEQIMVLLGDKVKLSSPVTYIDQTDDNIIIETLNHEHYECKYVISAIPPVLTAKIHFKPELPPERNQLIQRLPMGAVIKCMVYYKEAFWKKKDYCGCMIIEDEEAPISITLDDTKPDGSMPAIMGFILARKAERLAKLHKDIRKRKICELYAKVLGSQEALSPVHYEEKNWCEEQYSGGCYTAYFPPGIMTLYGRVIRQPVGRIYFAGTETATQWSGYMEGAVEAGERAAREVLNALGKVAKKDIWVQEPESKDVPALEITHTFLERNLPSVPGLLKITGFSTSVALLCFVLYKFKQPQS
Chain of MAO-B (Q8BW75 whole entry): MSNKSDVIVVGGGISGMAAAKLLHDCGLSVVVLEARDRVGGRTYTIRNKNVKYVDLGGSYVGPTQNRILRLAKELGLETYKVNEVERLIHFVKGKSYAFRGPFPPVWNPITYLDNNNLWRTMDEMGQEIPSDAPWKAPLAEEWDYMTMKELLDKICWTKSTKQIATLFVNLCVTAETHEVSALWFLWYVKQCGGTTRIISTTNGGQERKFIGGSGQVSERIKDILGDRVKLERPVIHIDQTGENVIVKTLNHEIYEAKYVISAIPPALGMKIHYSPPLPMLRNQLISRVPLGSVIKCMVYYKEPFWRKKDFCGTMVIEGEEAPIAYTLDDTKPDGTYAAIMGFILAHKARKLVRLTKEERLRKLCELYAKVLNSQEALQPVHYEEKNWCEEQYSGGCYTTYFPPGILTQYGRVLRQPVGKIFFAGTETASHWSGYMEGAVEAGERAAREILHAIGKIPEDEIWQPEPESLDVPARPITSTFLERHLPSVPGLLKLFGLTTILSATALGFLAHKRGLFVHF

SMILES: C#CCN[C@@H]1CCc2ccccc21 [Rasagiline, R(+)-N-propargyl-1-aminoindan]
- Mortality N (%) ([1]; Rasagiline 0.8 mg/kg b.w.): 2 (20) N (%)
- Mortality N (%) ([1]; Rasagiline 2.5 mg/kg b.w.): 1 (10) N (%)
- MAO-A activity (mean dpm ± SD) ([2]; Rasagiline 0.8 mg/kg): 1463.10 ± 219 dpm
- MAO-A activity (mean dpm ± SD) ([2]; Rasagiline 2.5 mg/kg): 724.06 ± 65 dpm
- inhibition of MAO activity (MAO-A) ([2]; both concentrations): significant inhibition
- MAO-B activity (mean dpm ± SD) ([3]; Rasagiline 0.8 mg/kg): 370.01 ± 321 dpm
- MAO-B activity (mean dpm ± SD) ([3]; Rasagiline 2.5 mg/kg): 80.94 ± 14 dpm
- inhibition of MAO activity (MAO-B) ([3]; both concentrations): significant inhibition
- pole test T-total (prolonged movement time) [4]: significantly reduced
- pole test T-turn (prolonged movement time) [4]: significantly reduced
- open field activity [5]: observed neither upon open field activity
- rearing behavior [5]: nor on rearing behavior
- stride length ([6]; day 18-19): reversed shortened stride length
- stride length ([6]; day 27-28): reversed stride length impairment
- protection of Purkinje cells [7, 11]: partial protection
- protection of neurons of the inferior olives [7, 11]: partial protection
- protection of pontine nuclei against 3-NP intoxication ([7]; mouse, in vivo): completely protected
- loss of striatal DARPP-32-immunoreactive medium spiny neurons ([7]; striatum, did not reach levels of non-intoxicated controls): partially prevented
- loss of TH-immunopositive neurons in SNc ([7]; substantia nigra pars compacta): completely protected
- CD11b staining pattern (microglial activation), treated vs untreated mice [8]: No differences
- GFAP staining pattern (astroglial activation), treated vs untreated mice [8]: No differences
- general motor impairment (general motor score) [9]: significant improvement
- most commonly reported adverse events [10]: pain, headache and dizziness
- side effects typical of other dopaminergic medications (hallucinations, somnolence, edema, nausea, vomiting, diarrhea) [10]: infrequently reported
